In general, Kd refers to the free concentration of one partner at which half of the binding sites on the other are occupied at equilibrium, for simple one-to-one binding. A lower Kd goes with higher affinity.

For the first test, the target named is T1, Gp6 (Mycobacterium phage L5, UniProt Q05278, L15P).
T1 construct: pET-30a(+) vector-encoded N-terminal leader (additional residues up to the EcoRI site) (N); made in house; host or cells: E. coli BL21(DE3)
T1 sequence (Q05278 other isoform, or with tags, fused parts or gaps L15P): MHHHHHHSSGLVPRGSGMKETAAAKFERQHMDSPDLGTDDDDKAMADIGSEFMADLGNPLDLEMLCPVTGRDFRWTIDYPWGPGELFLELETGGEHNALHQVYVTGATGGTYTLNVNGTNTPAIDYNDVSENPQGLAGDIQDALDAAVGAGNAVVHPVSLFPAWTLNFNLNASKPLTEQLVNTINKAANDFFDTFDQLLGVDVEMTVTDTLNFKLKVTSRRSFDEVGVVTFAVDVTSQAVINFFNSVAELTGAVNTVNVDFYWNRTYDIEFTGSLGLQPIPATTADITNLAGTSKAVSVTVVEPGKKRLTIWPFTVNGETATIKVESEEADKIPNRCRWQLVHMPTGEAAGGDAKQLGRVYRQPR
As to the kind of experiment: Direct ESI-MS assay of carbohydrate binding. The arrangement: species or system mycobacteriophage L5.
Conditions: not given
As to the method:
Chemically synthesized fragments of mycobacterial arabinans and phenolic glycolypids were used to test the carbohydrate binding ability of recombinant Gp6. Association constants (Ka) for Gp6 binding to carbohydrate ligands were measured using the direct electrospray ionization mass spectrometry (ESI-MS) assay. The assay is based on the direct detection and quantification of the abundance of ligand-bound and unbound protein ions in the gas phase. All binding measurements were carried out at 25° C. and pH 7.2 using a 9.4T ApexQe FTICR mass spectrometer (Bruker, Billerica, Mass.). ESI was performed in aqueous ammonium acetate (100 mM) solutions prepared from stock solutions of protein and oligosaccharide. The single chain variable fragment (scFv) of the monoclonal antibody Se155-4 was used as reference protein to distinguish specific from nonspecific ligand binding with the protein during the ESI-MS measurements.
`COc1ccc(O[C@@H]2O[C@@H](C)[C@H](O)[C@@H](O[C@@H]3O[C@@H](C)[C@H](O)[C@@H](O[C@@H]4O[C@@H](C)[C@@H](OC)[C@@H](OC)[C@@H]4OC)[C@H]3O)[C@H]2O)cc1` [compound 12, 2,3,4-tri-O-CH3-α-Fucp-(1→3)-α-Rhap(1→3)-α-RhapOpPMP] showed an equilibrium dissociation constant (Kd) of 286 µM.
Compound `COc1ccc(O[C@@H]2O[C@@H](C)[C@H](O)[C@@H](O[C@@H]3O[C@@H](C)[C@H](O)[C@@H](O[C@@H]4O[C@@H](C)[C@@H](OC)[C@@H](O)[C@@H]4OC)[C@H]3O)[C@H]2O)cc1` [compound 11, 2,4-di-O-CH3-α-Fucp-(1→3)-α-Rhap(1→3)-α-Rhap-OPMP] had a dissociation constant (Kd) of 333 µM. The Kd values of the last two compounds are within 1.5-fold of each other.
The compound `COC[C@H]1O[C@@H](O[C@@H]2[C@@H](OC)[C@@H](OC)[C@H](O[C@H]3[C@H](Oc4ccc(OC)cc4)O[C@@H](C)[C@H](O)[C@H]3OC)O[C@H]2C)[C@H](O)[C@@H](OC)[C@@H]1O` [compound 13, 3,6-di-O-CH3-β-Glcp-(1→4)-2,3-di-O-CH3-α-Rhap-(1→2)-3-O-CH3-α-RhapOPMP] had a dissociation constant (Kd) of 417 µM.
Take `O=C(NCCCCCCCCO[C@H]1O[C@H](CO[C@H]2O[C@H](CO[C@H]3O[C@H](CO)[C@@H](O)[C@@H]3O[C@@H]3O[C@H](CO[C@H]4O[C@H](CO)[C@@H](O)[C@H](O)[C@@H]4O)[C@@H](O)[C@@H]3O)[C@@H](O)[C@@H]2O)[C@@H](O)[C@@H]1O)C(F)(F)F` [compound 1, α-Manp-(1→5)-β-Araf-(1→2)-α-Araf-(1→5)-α-Araf-(1→5)-α-Araf-octyl-NHCOCF3]: binding was put at a Kd of 256 µM.
In turn, `O=C(NCCCCCCCCO[C@H]1O[C@H](CO[C@H]2O[C@H](CO[C@H]3O[C@H](CO)[C@@H](O)[C@@H]3O[C@@H]3O[C@H](CO)[C@@H](O)[C@@H]3O)[C@@H](O[C@H]3O[C@H](CO)[C@@H](O)[C@@H]3O[C@@H]3O[C@H](CO)[C@@H](O)[C@@H]3O)[C@@H]2O)[C@@H](O)[C@@H]1O)C(F)(F)F` [compound 3, β-Araf-(1→2)-α-Araf-(1→5)[β-Araf-(1→2)-α-Araf-(1→3)]-α-Araf-(1→5)-α-Araf-octyl-NHCOCF3] showed a Kd of 278 µM.
`O=C(NCCCCCCCCO[C@H]1O[C@H](CO[C@H]2O[C@H](CO[C@H]3O[C@H](CO[C@H]4O[C@H](CO)[C@@H](O)[C@@H]4O)[C@@H](O)[C@@H]3O)[C@@H](O)[C@@H]2O)[C@@H](O)[C@@H]1O)C(F)(F)F` [compound 8, α-Araf-(1→5)-α-Araf-(1→5)-α-Araf-(1→5)-a-Araf-octyl-NHCOCF3] showed a Kd of 145 µM.
Turning to `O=C(NCCCCCCCCO[C@H]1O[C@H](CO[C@H]2O[C@H](CO[C@H]3O[C@H](CO)[C@@H](O)[C@@H]3O[C@@H]3O[C@H](CO[C@H]4O[C@H](CO)[C@@H](O)[C@H](O)[C@@H]4O[C@H]4O[C@H](CO)[C@@H](O)[C@H](O)[C@@H]4O[C@H]4O[C@H](CO)[C@@H](O)[C@H](O)[C@@H]4O)[C@@H](O)[C@@H]3O)[C@@H](O)[C@@H]2O)[C@@H](O)[C@@H]1O)C(F)(F)F` [compound 9, α-Manp-(1→2)-α-Manp-(1→2)-α-Manp-(1→5)-β-Araf-(1→2)-α-Araf-(1→5)-α-Araf-(1→5)-α-Araf-octyl-NHCOCF3], the affinity, expressed as Kd, was 385 µM. Against the preceding compound, the Kd is about 2.7-fold higher.
`O=C(NCCCCCCCCO[C@H]1O[C@H](CO[C@H]2O[C@H](CO)[C@@H](O[C@H]3O[C@H](CO)[C@@H](O)[C@@H]3O[C@@H]3O[C@H](CO)[C@@H](O)[C@@H]3O)[C@@H]2O)[C@@H](O)[C@@H]1O)C(F)(F)F` [compound 7, β-Araf-(1→2)-α-Araf-(1→3)-α-Araf-(1→5)-α-Araf-octyl-NHCOCF3] had a Kd of 909 µM.

Staying with this test, now noted: 25° C., pH 7.2, direct ESI-MS assay.
As for “6-O-CH3-β-Glcp-(1→4)-2,3-di-O-CH3-α-Rhap-(1→2)-3-O-CH3-α-RhapOPMP [compound 14]”, the “Association constants (Ka) for Gp6” value is “NB^3”.
Consider `COc1ccc(OC2OC(C)C(O)C(OC3OC(C)C(O)C(O)C3O)C2OC)cc1` (stereo not drawn) [compound 15, α-Rhap-(1→3)-2-O-CH3-α-RhapOPMP], for which the “Association constants (Ka) for Gp6” value is “NB^3”.

Source of the values: patent US9885713B2, “Diagnosis and treatment of mycobacteria infections” (priority 2013, dated 2018).
